Laboratory results: patent publication US9758557B2, “C1q peptides and uses thereof” (THE FEINSTEIN INSTITUTE FOR MEDICAL RESEARCH, priority 2013, dated 2017)

Assays:
[1] = system: R4A binding to dsDNA; experiment: DNA ELISA, inhibition of R4A binding to dsDNA by fluid phase C1q; conditions: immobilized dsDNA
Description: (§1) ELISAs—Costar half-volume 96-well plates (Corning, N.Y.) were used for C1q ELISAs and Immulon 2HB 96-well plates (Milford, Mass.) were used for DNA ELISAs. C1q was purchased from Comptech (Tyler, Tex.) and adsorbed to 96-well plate (50 μg/ml) Plates were blocked with 2% BSA in PBS for 1 hour at RT. R4A antibody or IgG2b control immunoglobulin (MPC-11 hybridoma, ATCC, Manassas, Va.) was added for 1 hour at RT at various concentrations of NaCl. Cytokine ELISA was performed according to manufacturer's protocol (BD Biosciences, San Diego, Calif.). C1q collagen-tail of C1q was prepared as described in [21].

[2] = system: R4A binding to C1q; experiment: ELISA, inhibition of R4A binding to C1q by peptide
Description: as §1

Substance	inhibition of R4A binding to dsDNA [1]	inhibition of R4A binding to C1q [2]
C1q: human complement C1q, purchased from Comptech	inhibited	–
DWEYS [reference compound]	–	inhibited
EADYG (fusion protein)	–	inhibited
